The source of these data is US9643982B2, “Fused tricyclic heterocyclic compounds as HIV integrase inhibitors” (Merck Sharp & Dohme Corp., priority 2013, dated 2017).

pEC50: −log10 of the molar value. Like-named read-outs stand apart in the source and are kept apart here.

The test system of the experiment is HIV-1 (NL4-3 strain). Description: Multiple round HIV-1 infection assay in MT4-GFP cells (Wild Type Cell Assay). Format: cell-based. The settings on record: Human immunodeficiency virus 1, NL43, MT4-GFP cells infected with HIV-1 NL4-3, read-out: Wild Type Cell Assay IP. On the procedure: HIV-1 replication was monitored using MT4-gag-GFP clone D3 (hereafter designate MT4-GFP), which are MT-4 cells modified to harbor a GFP reporter gene, the expression of which is dependent on the HIV-1 expressed proteins tat and rev. Productive infection of an MT4-GFP cell with HIV-1 results in GFP expression approximately 24 h post-infection.
MT4-GFP cells were maintained at 37° C./5% CO2/90% relative humidity in RPMI 1640 supplemented with 10% fetal bovine serum, 100 U/ml penicillin/streptomycin, and 400 μg/ml G418 to maintain the reporter gene. For infections, MT4-GFP cells were placed in the same medium lacking G418 and infected overnight with HIV-1 (NL4-3 strain) virus at an approximate multiplicity of infection of 0.01 in the same incubation conditions.
Cells were then washed and resuspended in either RPMI 1640 supplemented with 10% normal human serum (NHS) or without NHS at 1.6×10^5 cells/mL (10% NHS or serum-free conditions) or in 100% normal human serum at 2×10^5 cells/mL (100% NHS conditions). Compound plates were prepared by dispensing compounds dissolved in DMSO into wells of 384 well poly D lysine-coated plates (0.2 μl/well) using an ECHO acoustic dispenser. Each compound was tested in a 10 point serial 3-fold dilution (typical final concentrations: 8.4 μM-0.42 nM). Controls included no inhibitor (DMSO only) and a combination of three antiviral agents (efavirenz, indinavir, and the integrase strand transfer inhibitor L-002254051 at final concentrations of 4 μM each). Cells were added (50 μL/well) to compound plates and the infected cells were maintained at 37° C./5% CO2/90% relative humidity.

Consider `CCN1CC2CC(C)c3c(C(=O)NCc4ccc(F)cc4F)c(=O)c(O)c(n32)C1=O` (single isomer, unassigned) [Compound 35, N-(2,4-difluorobenzyl)-2-ethyl-9-hydroxy-6-methyl-1,8-dioxo-2,3,3a,5,6,8-hexahydro-1H-pyrazino[2,1,6-cd]indolizine-7-carboxamide], for which the pEC50 (0 % NHS (serum-free)) was 8.92.

For `CC(C)N1C[C@@H]2COCc3c(-c4nnc(Cc5ccc(F)cc5F)s4)c(=O)c(O)c(n32)C1=O` (single isomer, unassigned) [Compound 13, 9-(5-(2,4-difluorobenzyl)-1,3,4-thiadiazol-2-yl)-7-hydroxy-5-isopropyl-3,3a,4,5-tetrahydro-1H-2-oxa-3a1,5-diazaphenalene-6,8-dione], where the note is “0 % NHS (serum-free)”, the pEC50 was 8.30.

As for `CC(C)(O)CN1C[C@@H]2CCc3c(C(=O)NCc4ccc(F)c(F)c4F)c(=O)c(O)c(n32)C1=O` (single isomer, unassigned) [Compound 23], the pEC50 (0 % NHS (serum-free)) was 8.42.

Turning to `CC(C)N1CC2COCc3c(C(=O)NCc4ccc(F)c(Cl)c4)c(=O)c(O)c(n32)C1=O` (racemic) [Compound 10], the pEC50 (10 % NHS (normal human serum)) was 7.00.

Turning to `O=C(NCc1ccc(F)cc1F)c1c2n3c(c(O)c1=O)C(=O)N(CCC(F)(F)F)C[C@@H]3CC2` (single isomer, unassigned) [Compound 20], the pEC50 (0 % NHS (serum-free)) was 8.42.

Regarding `CCN1C(=O)c2c(O)c(=O)c(C(=O)NCc3ccc(F)c(Cl)c3)c3n2[C@@H](CC3)[C@H]1OC` (single isomer, unassigned) [Compound 26], under “0 % NHS (serum-free)”, the pEC50 was 8.49.

As to `O=C(NCc1ccc(F)cc1F)c1c2n3c(c(O)c1=O)C(=O)N(Cc1cccnc1)CC3COC2` (racemic) [Compound 7], the pEC50 (0 % NHS (serum-free)) is 8.02.

Consider `CN1CC2COCc3c(C(=O)NCc4ccc(F)cc4F)c(=O)c(O)c(n32)C1=O` (racemic) [Compound 1], for which, under “0 % NHS (serum-free)”, the pEC50 was 8.04.

As to `CC(C)N1C[C@@H]2COCc3c(C(=O)NCc4ccc(F)cc4F)c(=O)c(O)c(n32)C1=O` (single isomer, unassigned) [Compound 3], the pEC50 (0 % NHS (serum-free)) is 7.89.

In the case of `COCCN1CC2CC(C)c3c(C(=O)NCc4ccc(F)cc4F)c(=O)c(O)c(n32)C1=O` (single isomer, unassigned) [Compound 36], the pEC50 (0 % NHS (serum-free)) was 8.41.

On to `Cc1c(F)ccc(CNC(=O)c2c3n4c(c(O)c2=O)C(=O)N(C(C)C)CC4COC3)c1F` (racemic) [Compound 11], for which the pEC50 (10 % NHS (normal human serum)) is 6.94.

As to `COCCN1C[C@H]2C[C@H](OC)c3c(C(=O)NCc4ccc(F)cc4F)c(=O)c(O)c(n32)C1=O` (single isomer, unassigned) [Compound 32], the pEC50 (0 % NHS (serum-free)) was 8.64.

Regarding `COCCC(C)N1CC2COCc3c(C(=O)NCc4ccc(F)cc4F)c(=O)c(O)c(n32)C1=O` (centres unmarked) [Compound 6], the pEC50 (0 % NHS (serum-free)) is 7.62.

Take `CO[C@@H]1C[C@H]2CN(CC3CC3)C(=O)c3c(O)c(=O)c(C(=O)NCc4ccc(F)cc4F)c1n32` (single isomer, unassigned) [Compound 33]: the pEC50 (0 % NHS (serum-free)) is 8.64.

Consider `CCN1CC2CC(OC)c3c(C(=O)NCc4ccc(F)cc4F)c(=O)c(O)c(n32)C1=O` (racemic) [Compound 29], for which the pEC50 (0 % NHS (serum-free)) is 8.92.

For `CC(C)N1CC2COCc3c(C(=O)NCc4ccc(F)c(Cl)c4F)c(=O)c(O)c(n32)C1=O` (racemic) [Compound 12], under “10 % NHS (normal human serum)”, the pEC50 is 7.30.

With `COc1ccc(CN2CC3COCc4c(C(=O)NCc5ccc(F)cc5F)c(=O)c(O)c(n43)C2=O)cc1` (racemic) [Compound 8], the pEC50 (0 % NHS (serum-free)) was 7.64.

For the compound `CCN1C[C@H]2C[C@@H](OC)c3c(C(=O)NCc4ccc(F)cc4F)c(=O)c(O)c(n32)C1=O` (single isomer, unassigned) [Compound 31], the pEC50 (0 % NHS (serum-free)) was 8.42.

Take `CCO[C@H]1[C@H]2CCc3c(C(=O)NCc4ccc(F)cc4F)c(=O)c(O)c(n32)C(=O)N1CC` (single isomer, unassigned) [Compound 28]: the pEC50 (0 % NHS (serum-free)) was 8.68.

Consider `CC(C)N1C[C@@H]2COCc3c(C(=O)NCc4ccc(F)c(F)c4F)c(=O)c(O)c(n32)C1=O` (single isomer, unassigned) [Compound 9], for which the pEC50 (10 % NHS (normal human serum)) was 7.70.

For `CCN1CC2CCc3c(C(=O)NCc4ccc(F)cc4F)c(=O)c(O)c(n32)C1=O` (racemic) [Compound 18, N-(2,4-difluorobenzyl)-2-ethyl-8-hydroxy-1,7-dioxo-2,3,3a,4,5,7-hexahydro-1H-pyrazino[2,1,6-cd]indolizine-6-carboxamide], the pEC50 (0 % NHS (serum-free)) was 8.59.

On to `CCN1C(=O)c2c(O)c(=O)c(C(=O)NCc3ccc(F)cc3F)c3n2C(CC3)C1OC` (racemic) [Compound 25], for which, where the note is “0 % NHS (serum-free)”, the pEC50 was 8.72.

As to `COCCN1CC2COCc3c(C(=O)NCc4ccc(F)cc4F)c(=O)c(O)c(n32)C1=O` (racemic) [Compound 5], the pEC50 (0 % NHS (serum-free)) is 8.04.

Regarding `CO[C@H](C)CN1C[C@H]2CCc3c(C(=O)NCc4ccc(F)cc4F)c(=O)c(O)c(n32)C1=O` (single isomer, unassigned) [Compound 22], for the setting “0 % NHS (serum-free)”, the pEC50 is 8.55.

Regarding `CC(C)CN1CC2COCc3c(C(=O)NCc4ccc(F)cc4F)c(=O)c(O)c(n32)C1=O` (racemic) [Compound 4], the pEC50 (10 % NHS (normal human serum)) was 7.68.

As to `CCN1CC2CC(O)c3c(C(=O)NCc4ccc(F)cc4F)c(=O)c(O)c(n32)C1=O` (racemic) [Compound 24, N-(2,4-difluorobenzyl)-2-ethyl-5,8-dihydroxy-1,7-dioxo-2,3,3a,4,5,7-hexahydro-1H-pyrazino[2,1,6-cd]indolizine-6-carboxamide], the pEC50 (0 % NHS (serum-free)) is 8.66.

`CCN1C[C@@H]2C[C@@H](OC)c3c(C(=O)NCc4ccc(F)cc4F)c(=O)c(O)c(n32)C1=O` (single isomer, unassigned) [Compound 30]: the pEC50 (0 % NHS (serum-free)) is 9.00.

Turning to `COCCN1CC2CCc3c(C(=O)NCc4c(F)cc(F)cc4OC)c(=O)c(O)c(n32)C1=O` (racemic) [Compound 19], the pEC50 (0 % NHS (serum-free)) was 8.36.

As to `CCN1CC2CC(C)c3c(C(=O)NCc4ccc(F)c(F)c4F)c(=O)c(O)c(n32)C1=O` (single isomer, unassigned) [Compound 37], under “0 % NHS (serum-free)”, the pEC50 is 8.96.

As for `COCCN1C(=O)c2c(O)c(=O)c(C(=O)NCc3ccc(F)cc3F)c3n2[C@H](CC3)[C@@H]1OC` (single isomer, unassigned) [Compound 27], the pEC50 (0 % NHS (serum-free)) was 8.64.

For the compound `O=C(NCc1ccc(F)c(F)c1F)c1c2n3c(c(O)c1=O)C(=O)N(CC1CC1)C[C@H]3CC2` (single isomer, unassigned) [Compound 21], the pEC50 (0 % NHS (serum-free)) was 8.51.

With `CC(C)N1CC2C(=O)N(C)Cc3c(C(=O)NCc4ccc(F)cc4F)c(=O)c(O)c(n32)C1=O` (racemic) [Compound 16, N-(2,4-difluorobenzyl)-9-hydroxy-2-isopropyl-5-methyl-1,4,8-trioxo-1,2,3,3a,4,5,6,8-octahydro-2,3a1,5-triazaphenalene-7-carboxamide], the pEC50 (0 % NHS (serum-free)) was 7.77.

Regarding `CC(C)N1CC2COCc3c(C(=O)NCc4ccc(F)cc4F)c(=O)c(O)c(n32)C1=O` (racemic) [Compound 2], the pEC50 (10 % NHS (normal human serum)) is 7.48.

Take `CC(C)N1CC2COCc3c(-c4cnn(Cc5ccc(F)cc5F)c4)c(=O)c(O)c(n32)C1=O` (racemic) [Compound 14]: under “0 % NHS (serum-free)”, the pEC50 is 6.49.

With `CC(C)N1C[C@@H]2COCc3c(-c4cnn(Cc5ccc(F)cc5F)c4)c(=O)c(O)c(n32)C1=O` (single isomer, unassigned) [Compound 15], the pEC50 (0 % NHS (serum-free)) was 6.63.

Consider `CNC(=O)c1c2n3c(c(O)c1=O)C(=O)N(Cc1ccc(F)cc1)CC3CC2` (racemic) [Compound 17, 2-(4-fluorobenzyl)-8-hydroxy-N-methyl-1,7-dioxo-2,3,3a,4,5,7-hexahydro-1H-pyrazino[2,1,6-cd]indolizine-6-carboxamide], for which the pEC50 (0 % NHS (serum-free)) was 7.46.

`CCO[C@@H]1C[C@H]2CN(CC)C(=O)c3c(O)c(=O)c(C(=O)NCc4ccc(F)cc4F)c1n32` (single isomer, unassigned) [Compound 38]: the pEC50 (0 % NHS (serum-free)) is 8.72.

Consider `CCN1C[C@@H]2C[C@@H](OC)c3c(C(=O)NCc4ccc(F)c(Cl)c4F)c(=O)c(O)c(n32)C1=O` (single isomer, unassigned) [Compound 34], for which the pEC50 (0 % NHS (serum-free)) is 8.54.
